Source: ChEMBL document CHEMBL3885881, “DrugMatrix”
Positions of bridges follow the written chain, without caps; N, C: chain ends. Non-standard residues stand in square brackets, D forms with d. Residues, ends and D or L forms follow the SMILES beside them. *: point of attachment. Ileψ(thiazoline)Cys = CC[C@H](C)[C@H](N)C1=N[C@H](C(=O)*)CS1; dOrn = NCCC[C@@H](N)C(=O)O

Species: Rattus norvegicus
Assay: DrugMatrix - Regimen: Daily Repeat
Format: toxicity, organism-based, Sprague-Dawley
Parameters: regimen Daily Repeat, gender Male, age 6-8 weeks
Settings: in vivo, sc, route subcutaneous, […]; for ABSOLUTE BASOPHIL / ABSOLUTE EOSINOPHIL / ABSOLUTE LYMPHOCYTE / ABSOLUTE MONOCYTE / ABSOLUTE SEGMENTED NEUTROPHIL / BASOPHIL / EOSINOPHIL / ERYTHROCYTE COUNT / HEMATOCRIT / HEMOGLOBIN / LEUKOCYTE COUNT / LYMPHOCYTE / MEAN CORPUSCULAR HEMOGLOBIN / MEAN CORPUSCULAR HEMOGLOBIN CONCENTRATION / MEAN CORPUSCULAR VOLUME / MONOCYTE / NEUTROPHIL / NUCLEATED RED BLOOD CELLS / PLATELET COUNT: tissue Blood; for ALANINE AMINOTRANSFERASE / ALBUMIN / ALKALINE PHOSPHATASE / ASPARTATE AMINOTRANSFERASE / BLOOD UREA NITROGEN / CARBON DIOXIDE / CHLORIDE / CHOLESTEROL / CREATINE PHOSPHOKINASE / CREATININE / GLUCOSE / LACTATE DEHYDROGENASE / LIPASE / PHOSPHORUS / POTASSIUM / SODIUM / TOTAL BILIRUBIN / TOTAL PROTEIN / URIC ACID: tissue Plasma
[1] = 380 mg/kg, 72 h, dose level High, time 3 day
[2] = 380 mg/kg, 120 h, dose level High, time 5 day
[3] = 72 h, dose 7.6 mg/Kg, dose level Low, time 3 day
[4] = 120 h, dose 7.6 mg/Kg, dose level Low, time 5 day

CC[C@H](C)[C@H](N)C1=N[C@H](C(=O)N[C@@H](CC(C)C)C(=O)N[C@H](CCC(=O)O)C(=O)N[C@H](C(=O)N[C@H]2CCCCNC(=O)[C@H](CC(N)=O)NC(=O)[C@@H](CC(=O)O)NC(=O)[C@H](Cc3cnc[nH]3)NC(=O)[C@@H](Cc3ccccc3)NC(=O)[C@H]([C@@H](C)CC)NC(=O)[C@@H](CCCN)NC2=O)[C@@H](C)CC)CS1 [BACITRACIN] ({Ileψ(thiazoline)Cys}-L[dE]IK[dOrn]I[dF]H[dD]N; lactam 4-C)
ABSOLUTE BASOPHIL [1]: 0 CELLS/uL | ABSOLUTE EOSINOPHIL [1]: 42 CELLS/uL | ABSOLUTE LYMPHOCYTE [1]: 8742.33 CELLS/uL | ABSOLUTE MONOCYTE [1]: 132.67 CELLS/uL | ABSOLUTE SEGMENTED NEUTROPHIL [1]: 3249.67 CELLS/uL | BASOPHIL [1]: 0% | EOSINOPHIL [1]: 0.33% | ERYTHROCYTE COUNT [1]: 4.93 x10E6/uL | HEMATOCRIT [1]: 31.17% | HEMOGLOBIN [1]: 12.4 G/DL | LEUKOCYTE COUNT [1]: 12.17 x10E3/uL | LYMPHOCYTE [1]: 71.67% | MEAN CORPUSCULAR HEMOGLOBIN [1]: 25.1 pg | MEAN CORPUSCULAR HEMOGLOBIN CONCENTRATION [1]: 39.8 G/DL | MEAN CORPUSCULAR VOLUME [1]: 63.1 fL | MONOCYTE [1]: 1% | NEUTROPHIL [1]: 27% | NUCLEATED RED BLOOD CELLS [1]: 0.67 /100WBC | PLATELET COUNT [1]: 1256.33 x10E3/uL | ALANINE AMINOTRANSFERASE [1]: 168 u/L | ALBUMIN [1]: 3.13 G/DL | ALKALINE PHOSPHATASE [1]: 252 u/L | ASPARTATE AMINOTRANSFERASE [1]: 595.67 u/L | BLOOD UREA NITROGEN [1]: 127.67 mg/dL | CARBON DIOXIDE [1]: 23.33 mmol/L | CHLORIDE [1]: 90.67 MEQ/L | CHOLESTEROL [1]: 114.33 mg/dL | CREATINE PHOSPHOKINASE [1]: 288.33 u/L | CREATININE [1]: 4.29 mg/dL | GLUCOSE [1]: 146.67 mg/dL | LACTATE DEHYDROGENASE [1]: 577.67 u/L | LIPASE [1]: 8.67 u/L | PHOSPHORUS [1]: 15.2 mg/dL | POTASSIUM [1]: 7.31 MEQ/L | SODIUM [1]: 136.43 MEQ/L | TOTAL BILIRUBIN [1]: 0.37 mg/dL | TOTAL PROTEIN [1]: 5.8 G/DL | URIC ACID [1]: 1.37 mg/dL | ABSOLUTE BASOPHIL [2]: 0 CELLS/uL | ABSOLUTE EOSINOPHIL [2]: 0 CELLS/uL | ABSOLUTE LYMPHOCYTE [2]: 16005 CELLS/uL | ABSOLUTE MONOCYTE [2]: 832 CELLS/uL | ABSOLUTE SEGMENTED NEUTROPHIL [2]: 5863 CELLS/uL | BASOPHIL [2]: 0% | EOSINOPHIL [2]: 0% | ERYTHROCYTE COUNT [2]: 5.69 x10E6/uL | HEMATOCRIT [2]: 34% | HEMOGLOBIN [2]: 13.77 G/DL | LEUKOCYTE COUNT [2]: 22.7 x10E3/uL | LYMPHOCYTE [2]: 70.67% | MEAN CORPUSCULAR HEMOGLOBIN [2]: 24.2 pg | MEAN CORPUSCULAR HEMOGLOBIN CONCENTRATION [2]: 40.47 G/DL | MEAN CORPUSCULAR VOLUME [2]: 59.77 fL | MONOCYTE [2]: 3.67% | NEUTROPHIL [2]: 25.67% | NUCLEATED RED BLOOD CELLS [2]: 0.33 /100WBC | PLATELET COUNT [2]: 1853.67 x10E3/uL | ALANINE AMINOTRANSFERASE [2]: 104 u/L | ALBUMIN [2]: 3.33 G/DL | ALKALINE PHOSPHATASE [2]: 228.33 u/L | ASPARTATE AMINOTRANSFERASE [2]: 305.67 u/L | BLOOD UREA NITROGEN [2]: 48 mg/dL | CARBON DIOXIDE [2]: 25.33 mmol/L | CHLORIDE [2]: 96.33 MEQ/L | CHOLESTEROL [2]: 99.67 mg/dL | CREATINE PHOSPHOKINASE [2]: 335 u/L | CREATININE [2]: 0.95 mg/dL | GLUCOSE [2]: 137.67 mg/dL | LACTATE DEHYDROGENASE [2]: 484.67 u/L | LIPASE [2]: 9 u/L | PHOSPHORUS [2]: 11.2 mg/dL | POTASSIUM [2]: 6.3 MEQ/L | SODIUM [2]: 133.53 MEQ/L | TOTAL BILIRUBIN [2]: 0.17 mg/dL | TOTAL PROTEIN [2]: 6.1 G/DL | URIC ACID [2]: 2.73 mg/dL | ABSOLUTE BASOPHIL [3]: 0 CELLS/uL | ABSOLUTE EOSINOPHIL [3]: 0 CELLS/uL | ABSOLUTE LYMPHOCYTE [3]: 8685.33 CELLS/uL | ABSOLUTE MONOCYTE [3]: 135 CELLS/uL | ABSOLUTE SEGMENTED NEUTROPHIL [3]: 1146.33 CELLS/uL | BASOPHIL [3]: 0% | EOSINOPHIL [3]: 0% | ERYTHROCYTE COUNT [3]: 6.24 x10E6/uL | HEMATOCRIT [3]: 39.37% | HEMOGLOBIN [3]: 15.53 G/DL | LEUKOCYTE COUNT [3]: 9.97 x10E3/uL | LYMPHOCYTE [3]: 87.33% | MEAN CORPUSCULAR HEMOGLOBIN [3]: 24.9 pg | MEAN CORPUSCULAR HEMOGLOBIN CONCENTRATION [3]: 39.47 G/DL | MEAN CORPUSCULAR VOLUME [3]: 63.13 fL | MONOCYTE [3]: 1.33% | NEUTROPHIL [3]: 11.33% | NUCLEATED RED BLOOD CELLS [3]: 0 /100WBC | PLATELET COUNT [3]: 1341.67 x10E3/uL | ALANINE AMINOTRANSFERASE [3]: 22.67 u/L | ALBUMIN [3]: 4.77 G/DL | ALKALINE PHOSPHATASE [3]: 372.67 u/L | ASPARTATE AMINOTRANSFERASE [3]: 95 u/L | BLOOD UREA NITROGEN [3]: 17.33 mg/dL | CARBON DIOXIDE [3]: 22 mmol/L | CHLORIDE [3]: 105.67 MEQ/L | CHOLESTEROL [3]: 79.33 mg/dL | CREATINE PHOSPHOKINASE [3]: 677 u/L | CREATININE [3]: 0.21 mg/dL | GLUCOSE [3]: 182 mg/dL | LACTATE DEHYDROGENASE [3]: 728.67 u/L | LIPASE [3]: 9 u/L | PHOSPHORUS [3]: 14.07 mg/dL | POTASSIUM [3]: 6.5 MEQ/L | SODIUM [3]: 151.33 MEQ/L | TOTAL BILIRUBIN [3]: 0.2 mg/dL | TOTAL PROTEIN [3]: 6.97 G/DL | URIC ACID [3]: 2.53 mg/dL | ABSOLUTE BASOPHIL [4]: 0 CELLS/uL | ABSOLUTE EOSINOPHIL [4]: 40 CELLS/uL | ABSOLUTE LYMPHOCYTE [4]: 10682 CELLS/uL | ABSOLUTE MONOCYTE [4]: 80 CELLS/uL | ABSOLUTE SEGMENTED NEUTROPHIL [4]: 864.67 CELLS/uL | BASOPHIL [4]: 0% | EOSINOPHIL [4]: 0.33% | ERYTHROCYTE COUNT [4]: 4.88 x10E6/uL | HEMATOCRIT [4]: 31.97% | HEMOGLOBIN [4]: 12.4 G/DL | LEUKOCYTE COUNT [4]: 11.67 x10E3/uL | LYMPHOCYTE [4]: 90.67% | MEAN CORPUSCULAR HEMOGLOBIN [4]: 25.37 pg | MEAN CORPUSCULAR HEMOGLOBIN CONCENTRATION [4]: 38.97 G/DL | MEAN CORPUSCULAR VOLUME [4]: 65.07 fL | MONOCYTE [4]: 0.67% | NEUTROPHIL [4]: 8.33% | NUCLEATED RED BLOOD CELLS [4]: 0.67 /100WBC | PLATELET COUNT [4]: 938.67 x10E3/uL | ALANINE AMINOTRANSFERASE [4]: 50 u/L | ALBUMIN [4]: 4.2 G/DL | ALKALINE PHOSPHATASE [4]: 312.33 u/L | ASPARTATE AMINOTRANSFERASE [4]: 77 u/L | BLOOD UREA NITROGEN [4]: 17.33 mg/dL | CARBON DIOXIDE [4]: 27 mmol/L | CHLORIDE [4]: 103.67 MEQ/L | CHOLESTEROL [4]: 66 mg/dL | CREATINE PHOSPHOKINASE [4]: 146.67 u/L | CREATININE [4]: 0.2 mg/dL | GLUCOSE [4]: 146.33 mg/dL | LACTATE DEHYDROGENASE [4]: 121 u/L | LIPASE [4]: 8.67 u/L | PHOSPHORUS [4]: 12.63 mg/dL | POTASSIUM [4]: 6.86 MEQ/L | SODIUM [4]: 148.7 MEQ/L | TOTAL BILIRUBIN [4]: 0.2 mg/dL | TOTAL PROTEIN [4]: 6 G/DL | URIC ACID [4]: 1.4 mg/dL
